Data from the NIST ThermoML archive (doi:10.1021/je060271a).
± gives the expanded uncertainty stated by the source.

Conditions: 303.15 K, Liquid, Vibrating tube method

CCCCCCCC(=O)OCC(COC(=O)CCCCCCC)(COC(=O)CCCCCCC)COC(=O)CCCCCCC [pentaerythritol tetraoctanoate]
Conditions	mass density [kg/m3]
2156.4 kPa	956.7 ± 1.2
2179.1 kPa	956.6 ± 1.2
2206.4 kPa	956.8 ± 1.2
2234.6 kPa	956.8 ± 1.2
2258 kPa	956.7 ± 1.2
2287 kPa	956.8 ± 1.2
2316.5 kPa	956.9 ± 1.2
2341.8 kPa	956.8 ± 1.2
2372.4 kPa	956.7 ± 1.2
2402.9 kPa	957 ± 1.2
2429.4 kPa	956.7 ± 1.2
2462 kPa	956.8 ± 1.2
2495.8 kPa	956.9 ± 1.2
2524.1 kPa	957 ± 1.2
2559.1 kPa	956.9 ± 1.2
2596.2 kPa	957.1 ± 1.2
2642 kPa	957 ± 1.2
2696.3 kPa	957.1 ± 1.2
2784.7 kPa	957.1 ± 1.2
2865.2 kPa	957.2 ± 1.2
2954.3 kPa	957.3 ± 1.2
3081.5 kPa	957.2 ± 1.2
3108.7 kPa	957.4 ± 1.2
3121.2 kPa	957.4 ± 1.2
3136.3 kPa	957.4 ± 1.2
3151.3 kPa	957.4 ± 1.2
3164 kPa	957.4 ± 1.2
3179.1 kPa	957.5 ± 1.2
3193.3 kPa	957.4 ± 1.2
3204.5 kPa	957.4 ± 1.2
3218.1 kPa	957.4 ± 1.2
3229.7 kPa	957.4 ± 1.2
3242.8 kPa	957.4 ± 1.2
3256.4 kPa	957.5 ± 1.2
3270.2 kPa	957.4 ± 1.2
3284.1 kPa	957.5 ± 1.2
3580.6 kPa	957.6 ± 1.2
3702.5 kPa	957.6 ± 1.2
3720 kPa	957.5 ± 1.2
3734.9 kPa	957.7 ± 1.2
3753.7 kPa	957.7 ± 1.2
3901.1 kPa	957.9 ± 1.2
4311.5 kPa	958.1 ± 1.2
4330 kPa	958 ± 1.2
4352.8 kPa	958.1 ± 1.2
4371.7 kPa	958.1 ± 1.2
4395.1 kPa	958.1 ± 1.2
4412.6 kPa	958.1 ± 1.2
4416.5 kPa	958.2 ± 1.2
4419.7 kPa	958.2 ± 1.2
4422.8 kPa	958.2 ± 1.2
4423.3 kPa	958.2 ± 1.2
4424.2 kPa	958.1 ± 1.2
4426.8 kPa	958.2 ± 1.2
4435.8 kPa	958.1 ± 1.2
4446.7 kPa	958.3 ± 1.2
4455.8 kPa	958.2 ± 1.2
4466.6 kPa	958 ± 1.2
4475.6 kPa	958.1 ± 1.2
4486.7 kPa	958.2 ± 1.2
4542.6 kPa	958.3 ± 1.2
4584.4 kPa	958.1 ± 1.2
4608.3 kPa	958.4 ± 1.2
4628.1 kPa	958.3 ± 1.2
4651.8 kPa	958.3 ± 1.2
4675.6 kPa	958.3 ± 1.2
4696.6 kPa	958.2 ± 1.2
4717 kPa	958.3 ± 1.2
4742.3 kPa	958.4 ± 1.2
4763.2 kPa	958.3 ± 1.2
4788.5 kPa	958.3 ± 1.2
4809.9 kPa	958.5 ± 1.2
4835.7 kPa	958.4 ± 1.2
4857.2 kPa	958.4 ± 1.2
4981.8 kPa	958.4 ± 1.2
5009.3 kPa	958.4 ± 1.2
5033 kPa	958.5 ± 1.2
5062 kPa	958.5 ± 1.2
5085.4 kPa	958.5 ± 1.2
5113.6 kPa	958.5 ± 1.2
5138.1 kPa	958.6 ± 1.2
5167.4 kPa	958.5 ± 1.2
5197.3 kPa	958.7 ± 1.2
5221.9 kPa	958.5 ± 1.2
5251.8 kPa	958.7 ± 1.2
5277.7 kPa	958.7 ± 1.2
5335.3 kPa	958.6 ± 1.2
5367.5 kPa	958.6 ± 1.2
5396 kPa	958.7 ± 1.2
5428.7 kPa	958.7 ± 1.2
5455.7 kPa	958.7 ± 1.2
5489.1 kPa	958.8 ± 1.2
5517.5 kPa	958.8 ± 1.2
5552 kPa	958.7 ± 1.2
5581.6 kPa	958.8 ± 1.2
5767 kPa	959 ± 1.2
5794 kPa	959.1 ± 1.2
5810.8 kPa	959 ± 1.2
5827.4 kPa	959 ± 1.2
5847.7 kPa	959 ± 1.2
5864.7 kPa	959.1 ± 1.2
5884.7 kPa	959.1 ± 1.2
5905.3 kPa	959.1 ± 1.2
5922.3 kPa	959.1 ± 1.2
5943.2 kPa	959 ± 1.2
5960.8 kPa	959.2 ± 1.2
5981.9 kPa	959.1 ± 1.2
5999.7 kPa	959.2 ± 1.2
6021.7 kPa	959.2 ± 1.2
6040 kPa	959.2 ± 1.2
6060.9 kPa	959.1 ± 1.2
6079.2 kPa	959.1 ± 1.2
6100.3 kPa	959.1 ± 1.2
6121.9 kPa	959.2 ± 1.2
6140.7 kPa	959.2 ± 1.2
6163.6 kPa	959.3 ± 1.2
6182 kPa	959.2 ± 1.2
6204.5 kPa	959.3 ± 1.2
6223.9 kPa	959.3 ± 1.2
6247 kPa	959.2 ± 1.2
6267.1 kPa	959.2 ± 1.2
6290.2 kPa	959.3 ± 1.2
6308.9 kPa	959.3 ± 1.2
6332.4 kPa	959.2 ± 1.2
6355.9 kPa	959.3 ± 1.2
6375.8 kPa	959.2 ± 1.2
6400.1 kPa	959.3 ± 1.2
6445.1 kPa	959.4 ± 1.2
6470.5 kPa	959.3 ± 1.2
6490.8 kPa	959.3 ± 1.2
6583.6 kPa	959.4 ± 1.2
6610.2 kPa	959.4 ± 1.2
6631.8 kPa	959.5 ± 1.2
6658.3 kPa	959.5 ± 1.2
6679.2 kPa	959.5 ± 1.2
6705.9 kPa	959.6 ± 1.2
6728.4 kPa	959.5 ± 1.2
6755.2 kPa	959.5 ± 1.2
6783 kPa	959.5 ± 1.2
6805.9 kPa	959.6 ± 1.2
6833.9 kPa	959.6 ± 1.2
6861.7 kPa	959.7 ± 1.2
6913.4 kPa	959.7 ± 1.2
7101.4 kPa	959.8 ± 1.2
7125.9 kPa	959.9 ± 1.2
7156.7 kPa	959.7 ± 1.2
7182.6 kPa	959.8 ± 1.2
7214 kPa	959.8 ± 1.2
